Earlier results as cited in patent publication US20080171791A1, “Compositions and Method for Losing Weight” (MDR Fitness Corp., priority 2007, published 2008).

Tests used:
[1] = test system: mammalian target of rapamycin (mTOR) signaling pathway; settings: rats; for food intake: administered near arcuate nucleus, approximately four hours after administration, lasted 24 hours
[2] = in vivo
[3] = long-term / large quantities / higher amounts ingested
lipogenic genes = settings: compared with oleic acid (C18-1)

Structure (SMILES) | food intake [1] | crossing the blood-brain barrier [2] | solubility in water | reported adverse effects [3] | suppression of lipogenic genes (lipogenic genes) | further results
CC(C)C[C@H](N)C(=O)O [L-leucine, leucine] | decrease | capable of crossing the blood-brain barrier | slightly soluble in water | – | – | body weight ([1]; accompanying decrease in food intake): weight loss
CCC(C)[C@H](N)C(=O)O (stereo in doubt) [Isoleucine, (2S, 3S)-2-amino-3-methylpentanoic acid] | – | – | not soluble in water | increased urination | – | –
CC(C)[C@H](N)C(=O)O [L-valine, valine] | did not cause the same effect | – | water soluble | hallucinations and crawling sensations on the skin | – | –
CCCCC/C=C\C/C=C\CCCCCCCC(=O)O [linoleic acid] | – | – | – | – | more effective | –
CCCCC/C=C\C/C=C\C/C=C\C/C=C\CCCC(=O)O [arachidonic acid] | – | – | – | – | more effective | –
CCCCCCCCC=CCCCCCCCC(=O)O [oleic acid, 9-octadecenoic acid] | – | capable of crossing the blood-brain barrier | – | – | – | absorption from the digestive tract [2]: absorbed intact
